Source: patent EP4707279A1, “SUBSTITUTED TRICYCLIC HETEROCYCLIC COMPOUND AS PHARMACEUTICAL FOR TREATMENT OR PREVENTION OF COVID-19” (priority 2023, dated 2024)

Assays:
SARS-CoV-2 [1] = test: microbe, parasite or virus in culture; type: cell-based; details: Severe acute respiratory syndrome coronavirus 2, VeroE6-TMPRSS2 cells, read-out: inhibition of CPE
SARS-CoV-2 [2] = test: CPE inhibition assay, anti-SARS-CoV-2 virus activity in vitro (Test Example 4); type: cell-based; details: for inhibition at 10 µM: Severe acute respiratory syndrome coronavirus 2, VeroE6/TMPRSS2, 72 h, read-out: Anti SARS-CoV-2 activity
Caco-2 cells = details: 48 hours, CellTiter-Glo
Method: (§1) To evaluate the cytotoxicity of the selected compound, CellTiter-Glo (registered trademark) Luminescent Cell Viability Assay (Promega Corporation, Madison, WI, USA) was conducted. Briefly, VeroE6-TMPRSS2 or Caco-2 cells (4×10^4 cells/well) were incubated with different concentrations of the compound for 48 hours, and then, the number of cells was measured as the amount of ATP in the cell lysate supernatant using CellTiter-Glo (registered trademark) Luminescent Cell Viability Assay method. The CC50 of the compound was calculated by GraphPad. The repeated test was conducted three times.
(§2) VeroE6 (ATCC CRL-1586 (registered trademark)) and Vero E6-TMPRSS2 (BPS Bioscience Catalog #78081) as well as Caco-2 cells (ATCC HTB-37 (registered trademark)) were purchased as commercial products and they were passaged in Dulbecco's Modified Eagle Medium (DMEM, Gibco, CA, USA) supplemented with 10% heat-inactivated fetal bovine serum (FBS, Gibco, CA, USA), 50 U/mL penicillin, and 50 µg/mL streptomycin. All antibiotics and supplements were purchased from Thermo Fisher Scientific, Inc. (Waltham, MA).

VeroE6-TMPRSS2 cells = details: 48 hours, CellTiter-Glo
Method: as §1, §2

[3] = CPE inhibition at 10 µM, VeroE6-TMPRSS2 cells, MOI 0.01, third day post infection, average of three tests

Molecule CCC(CC)COC(=O)[C@H](C)N[P@](=O)(OC[C@H]1O[C@@](C#N)(c2ccc3c(N)ncnn23)[C@H](O)[C@@H]1O)Oc1ccccc1 [Remdesivir] has an inhibition at 10 µM (SARS-CoV-2 [1]) of no less than 90%.

In the case of “(6S,9R,11aS,11bS)-1,3,6-Tri benzyl-11b-hydroxy-2,4,7-tri oxodecahydro-2H-pyrrolo [2',1':3,4]pyridazine[1,2-a] [1,3,5]triazine-9-carboxylic acid [Compound 4C]”, the “Anti SARS-CoV-2 activity” value (SARS-CoV-2 [2]; [3]) is reported as “C (less than 1%)”.

CNC(=O)[C@@H]1CC[C@H]2N1C(=O)[C@@H](Cc1ccccc1)N1C(=O)N(Cc3cccs3)C(=O)N(Cc3cccs3)[C@]21O [Compound 18F, (6R,9S,11aR,11bR)-6-benzyl-11b-hydroxy-N-methyl-2,4,7-trioxo-1,3-bis(thiophen-2-ylmethyl)decahydro-2H-pyrrolo [2',1':3,4]pyrazino[1,2-a][1,3,5]triazine-9-carboxamide] gave an inhibition at 10 µM (SARS-CoV-2 [2]) of 1 to 5%.

CCOC(=O)[C@@H]1CC[C@H]2N1C(=O)[C@@H](Cc1ccc3ccccc3c1)N1C(=O)N(Cc3ccccc3)C(=O)N(Cc3ccccc3)[C@]21O [Compound 7A, Ethyl (6R,9S,11aR,11bR)-1,3-dibenzyl-11b-hydroxy-6-(naphthalen-2-ylmethyl)-2,4,7-trioxodecahydro-2H-pyrrolo[2',1' :3,4]pyrazino[1,2-a][1,3,5]triazine-9-carboxylate] showed an inhibition at 10 µM (SARS-CoV-2 [2]) of less than 1%.

In the case of CCN(C(=O)NCCCN(C)C)C(=O)[C@@H]1CC[C@H]2N1C(=O)[C@@H](Cc1ccccc1)N1C(=O)N(Cc3cccs3)C(=O)N(Cc3cccs3)C21O (stereo partly drawn) [Compound 18H, (6R,9S,11aR)-6-benzyl-N-((3-(dimethylamino)propyl)carbamoil)-N-ethyl-11b-Hydroxy-2,4,7-trioxo-1,3-bis(thiophen-2-ylmethyl)decahydro-2H-pyrrolo[2',1':3,4] pyrazino[1,2-a][1,3,5]triazine-9-carboxamide], the “Anti SARS-CoV-2 activity” value (SARS-CoV-2 [2]; [3]) is reported as “A (a CPE inhibition effect of 5% or more)”.

For O=C(NCc1ccc2ccccc2c1)[C@@H]1CC[C@H]2N1C(=O)[C@@H](Cc1ccccc1)N1C(=O)N(Cc3ccccc3)C(=O)N(Cc3ccccc3)[C@]21O [Compound 1D, (6R,9S,11aR,11bR)-1,3,6-Tribenzyl-11b-hydroxy-N-(naphthalen-2-ylmethyl)-2,4,7-trioxo-2H-pyrrolo[2',1':3,4] pyridazine[1,2-a][1,3,5]triazine-9-carboxamide], the CC50 (Caco-2 cells) was greater than 400 µM, the CC50 (VeroE6-TMPRSS2 cells) was 145 µM and the “Anti SARS-CoV-2 activity” value (SARS-CoV-2 [2]; 10 µM) was “A (a CPE inhibition effect of 5% or more)”.

Work on O=C1[C@@H](Cc2ccccc2)N2C(=O)N(Cc3ccccc3)C(=O)N(Cc3ccccc3)C2=C2CCCCN12 [Compound 13B, (R) 1,3,6-Tribenzyl-9,10,11,12-tetrahydropyrido[2',1':3,4] pyrazino[1,2-a][1,3,5]triazine-2,4,7(1H,3H,6H)-trione] yielded an inhibition at 10 µM (SARS-CoV-2 [2]) of 1 to 5%.

In the case of “Ethyl (6R,9S,11aR,11bR)-1,3-dibenzyl-11b-hydroxy-6-methyl-2,4,7-trioxodecahydro-2H-pyrrolo[2',1':3,4]pyrazino[1,2-a] [1.3.5]triazine-9-carboxylate [Compound 2A]”, the “Anti SARS-CoV-2 activity” value (SARS-CoV-2 [2]; [3]) is reported as “C (less than 1%)”.

In the case of “(6S,9R,11aS,11bS)-1,3,6-Tribenzyl-11b-hydroxy-N-(naphthalen-2-ylmethyl)-2,4 ,7-trioxo-2H-pyrrolo [2',1':3,4]pyrazino [1,2-a][1,3,5]triazine-9-carboxamide [Compound 4D]”, the “Anti SARS-CoV-2 activity” value (SARS-CoV-2 [2]; [3]) is reported as “A (a CPE inhibition effect of 5% or more)”.
